The target of one experiment is wild-type βGT (Enterobacteria phage T4, UniProt P04547).
The next experiment has as its target T1, Taq polymerase (Thermus aquaticus, UniProt P19821).
T1 construct: purchased Sigma
The experiment can be described thus: Primer extension assay on 40-mer DNA template. The class given is biochemical. To be noted: streptavidin added (6 eq.-48 eq.), 72° C., 1 min. From the text:
FIGS. 9A-9B. The streptavidin adduct of biotin-5-N3-gmC hinders primer extension. (A) Sequence of 40 mer DNA containing cytosines derivatives used in primer extension. Cytosine 25, counting from right to left, with an asterisk presented the modified cytosines in the sequences, and also the position at which DNA polymerases tended to stall when the streptavidine adduct of biotin-5-N3-gmC-containing DNA was used as template. The arrow corresponded to the reverse PCR primer used for primer extension. (B) Primer extension assays for 40 mer DNA containing different cytosine species, shown beside a Sanger sequencing ladder. […] Position with the most significant stalling was position 24, one base before the modified position, although significant stalling still observed in the modified position (position 25, arrow). Primer extension using Sigma TaqRED polymerase, extension at 72° C. for 1 min. Sequencing ladder was performed with Sequenase from USB.
The properties of 5-hmC in duplex DNA are quite similar to those of 5-mC in terms of its sensitivity toward enzymatic reactions such as restriction enzyme digestion and polymerization (Flusberg et al., 2010; Josse and Kornberg, 1962; Lariviere and Morera, 2004). In an attempt to develop a method to differentiate these two bases in DNA, primer extension with a biotin-N3-5-gmC-modified DNA template was tested. […]

Another experiment addresses T2, TaqαI (Thermus aquaticus, UniProt P14386).
T2 sequence (P14386 1-263): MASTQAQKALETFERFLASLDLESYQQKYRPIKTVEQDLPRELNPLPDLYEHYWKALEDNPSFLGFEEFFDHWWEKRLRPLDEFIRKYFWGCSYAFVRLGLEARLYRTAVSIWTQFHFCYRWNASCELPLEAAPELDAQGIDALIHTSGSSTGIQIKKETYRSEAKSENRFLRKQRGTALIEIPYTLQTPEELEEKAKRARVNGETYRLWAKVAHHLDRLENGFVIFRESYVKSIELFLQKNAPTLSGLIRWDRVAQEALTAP
The experiment is described as follows: TaqαI digestion of 32-mer dsDNA with T*CGA. Particulars: 100 U TaqαI, 1 hr, 65° C.

In experiment [1] the target is T3, MspI (Moraxella sp, UniProt P11405). The experiment is described as follows: MspI digestion of 32-mer dsDNA with C*CGG. Particulars: 100 U MspI, 1 hr, 37° C.
For experiment [2], the system named is four different polymerases. The experiment can be described thus: Primer extension and PCR with 5-gmC-containing DNA. The class given is biochemical. The source says: The inventors synthesized the phosphoramidite of 5-hmC (now commercially available from Glen Research) and prepared duplex DNA with 5-hmC incorporated at specific locations.
The target of experiment [3] is T3, MspI. The experiment can be described thus: MspI restriction digestion of 40-mer DNA with CC*GG. Format: biochemical. To be noted: 40-mer duplex DNA. From the text:
FIG. 2. Restriction enzyme digestion assay of a 40 mer DNA with CC*GG (where C*=C, 5-meC, 5-hmC, or 5-gmC).
The inventors tested a restriction enzyme digestion assay with a 40-mer DNA containing a CC*GG (C*=C, 5-meC, 5-hmC, or 5-gmC) sequence in the middle. […] With bulkier groups on 5-hmC, digestions by other restriction enzymes that recognize DNA sequences containing CpG can be blocked.

A further experiment deals with HpaII (Haemophilus parainfluenzae, UniProt P36433). Format: biochemical. To be noted: 40-mer DNA.
Chain of HpaII (P36433 whole entry, looked up): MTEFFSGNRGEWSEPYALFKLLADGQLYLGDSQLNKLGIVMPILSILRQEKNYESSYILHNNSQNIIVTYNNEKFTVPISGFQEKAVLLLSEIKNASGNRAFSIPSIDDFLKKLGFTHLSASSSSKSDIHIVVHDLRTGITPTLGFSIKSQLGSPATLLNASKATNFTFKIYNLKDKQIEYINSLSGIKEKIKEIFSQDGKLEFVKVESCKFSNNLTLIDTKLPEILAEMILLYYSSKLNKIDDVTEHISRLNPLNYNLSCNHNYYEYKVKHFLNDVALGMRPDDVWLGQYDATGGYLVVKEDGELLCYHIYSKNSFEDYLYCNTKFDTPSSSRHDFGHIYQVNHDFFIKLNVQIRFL

T3 sequence (P11405 whole entry): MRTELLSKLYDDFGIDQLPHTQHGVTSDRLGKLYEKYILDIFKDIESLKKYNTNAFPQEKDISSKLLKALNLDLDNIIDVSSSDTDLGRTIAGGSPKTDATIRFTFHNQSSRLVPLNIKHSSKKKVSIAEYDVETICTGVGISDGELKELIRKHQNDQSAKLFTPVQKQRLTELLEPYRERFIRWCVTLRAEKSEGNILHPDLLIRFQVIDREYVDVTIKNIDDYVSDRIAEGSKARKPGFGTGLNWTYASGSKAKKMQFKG
Chain of wild-type βGT (P04547 with tags, fused parts or gaps): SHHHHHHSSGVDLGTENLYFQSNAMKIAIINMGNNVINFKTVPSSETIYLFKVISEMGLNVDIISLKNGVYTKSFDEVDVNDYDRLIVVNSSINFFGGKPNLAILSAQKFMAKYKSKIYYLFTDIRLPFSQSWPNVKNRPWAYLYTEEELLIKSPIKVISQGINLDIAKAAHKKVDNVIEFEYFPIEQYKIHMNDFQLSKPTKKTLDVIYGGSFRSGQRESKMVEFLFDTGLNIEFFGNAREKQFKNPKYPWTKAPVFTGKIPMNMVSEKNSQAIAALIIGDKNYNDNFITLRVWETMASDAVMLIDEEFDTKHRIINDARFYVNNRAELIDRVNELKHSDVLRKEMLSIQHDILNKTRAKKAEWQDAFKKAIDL
T1 sequence (P19821 whole entry): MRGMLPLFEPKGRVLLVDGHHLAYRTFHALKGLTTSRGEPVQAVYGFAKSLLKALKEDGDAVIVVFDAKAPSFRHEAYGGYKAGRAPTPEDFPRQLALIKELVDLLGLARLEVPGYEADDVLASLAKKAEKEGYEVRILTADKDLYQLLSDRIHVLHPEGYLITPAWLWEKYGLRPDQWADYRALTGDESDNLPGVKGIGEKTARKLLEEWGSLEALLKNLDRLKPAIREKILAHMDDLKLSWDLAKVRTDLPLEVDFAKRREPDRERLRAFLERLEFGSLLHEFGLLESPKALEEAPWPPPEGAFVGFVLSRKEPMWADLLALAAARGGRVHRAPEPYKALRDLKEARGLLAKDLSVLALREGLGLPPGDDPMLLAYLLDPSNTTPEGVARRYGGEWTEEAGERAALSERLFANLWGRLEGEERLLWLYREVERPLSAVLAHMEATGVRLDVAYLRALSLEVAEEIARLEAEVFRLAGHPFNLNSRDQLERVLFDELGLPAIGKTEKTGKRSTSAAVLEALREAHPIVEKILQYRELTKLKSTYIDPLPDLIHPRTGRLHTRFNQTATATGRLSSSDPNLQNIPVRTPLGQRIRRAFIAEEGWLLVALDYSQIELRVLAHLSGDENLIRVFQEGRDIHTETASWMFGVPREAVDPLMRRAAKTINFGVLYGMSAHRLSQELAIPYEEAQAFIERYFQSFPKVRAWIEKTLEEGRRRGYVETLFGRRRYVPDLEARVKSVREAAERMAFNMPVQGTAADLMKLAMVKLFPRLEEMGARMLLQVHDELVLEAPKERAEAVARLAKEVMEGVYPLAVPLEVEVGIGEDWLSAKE

As to “Uridine 5′-(2,3,4-tri-O-acetyl-6-azido-6-deoxy-α-D-glucopyranosyl)diphosphate bistriethylammonium salt [UDP-6-N3-Glu]”, on wild-type βGT, the “efficiency of transfer to 5-hmC-containing duplex DNA relative to UDP-Glu” value is “as efficiently as with UDP-Glu”. In addition, the “time for 6-N3-glucose transfer reaction to finish” value at wild-type βGT (11-mer duplex DNA with 5-hmC, as low as 1% enzyme concentration) was ≤ 5 min.

For the substance “β-6-azide-glucosyl-5-hydroxymethyl-cytosine [N3-5-gmC]”, on Taq polymerase, the “primer extension on modified template with streptavidin” value is “completely stalled”. The “TaqαI digestion, hemi-modified DNA” value on TaqαI (hemi-hydroxymethylation) is on record as “cannot block digestion as well as the fully-modified one”. The “TaqαI digestion, fully-modified DNA” value on TaqαI (modified on both strands) is given as “only partially”. Besides, at MspI [1], the “MspI digestion, fully-modified DNA” value was “block MspI digestion completely” and the “MspI digestion, hemi-modified DNA” value is recorded as “can be protected from digestion”.

Turning to “β-glucosyl-5-hydroxymethyl-cytosine [5-gmC]”, the “interference with polymerization reaction” value in experiment [2] is on record as “does not exhibit any interference”. The “MspI cutting of modified CC*GG site” value on MspI [3] is listed as “completely blocks”; on MspI [3] (listed as C(5-gmC)GG) it was “completely blocked”. The “HpaII cutting of modified CC*GG site” value on HpaII was “does not cut”.
